In this assay the target is T1, MLLT1 (Homo sapiens, UniProt Q03111).
T1 construct: endogenous in cells; host or cells: MV4-11 (ATCC CRL-9591)
T1 sequence (Q03111 1-559): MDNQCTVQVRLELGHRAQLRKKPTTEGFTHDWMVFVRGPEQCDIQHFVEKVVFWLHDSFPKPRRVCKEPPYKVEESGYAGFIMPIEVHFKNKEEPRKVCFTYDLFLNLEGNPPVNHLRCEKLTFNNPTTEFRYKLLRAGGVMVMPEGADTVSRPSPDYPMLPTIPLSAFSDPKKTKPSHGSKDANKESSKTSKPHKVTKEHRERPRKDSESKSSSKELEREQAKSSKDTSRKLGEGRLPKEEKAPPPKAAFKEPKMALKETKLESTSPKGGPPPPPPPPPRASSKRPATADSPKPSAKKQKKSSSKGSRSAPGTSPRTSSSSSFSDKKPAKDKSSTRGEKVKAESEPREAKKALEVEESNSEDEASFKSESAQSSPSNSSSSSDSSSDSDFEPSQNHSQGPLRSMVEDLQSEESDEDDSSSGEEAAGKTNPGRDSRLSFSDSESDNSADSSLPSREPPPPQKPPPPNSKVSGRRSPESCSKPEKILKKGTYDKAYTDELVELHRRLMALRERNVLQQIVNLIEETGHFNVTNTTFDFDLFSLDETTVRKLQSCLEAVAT
Kind of assay: MLLT1 degradation assay (JESS automated chemiluminescent detection) in MV4-11 cells. Format: cell-based. Particulars: 24h, with respect to DMSO control. How it is done:
MLLT1 degradation efficacy of compounds was tested in an automated chemiluminescent detection system (JESS, Cat# 004-650). MV4-11 (#CRL-9591, ATCC) cells were seeded at a density of 1.2 million cells/well in a non-treated 6-well cell culture plate in 2.4 mL of complete medium (IMDM + 10% FBS + 1X Penicillin-Streptomycin). 10 mM DMSO stocks were prepared, and cells were treated with three concentrations of test compounds viz. 1000, 100 and 10 nM at a final DMSO concentration of 0.1% and incubated for 24h at 37°C, 5% CO2. Post incubation, cells were centrifuged, washed with HBSS and lysed in 70 uL of RIPA buffer supplemented with Protease inhibitors (sc-24948; Santa Cruz). Subsequently, protein estimation was done using BCA protein assay kit (23225; Pierce). 4 ug protein lysate (4 uL of 1ug/uL lysate) was loaded into each well of the JESS cartridge (SM-WO01; Bio-techne) and the JESS run was performed using 1:900 dilution of anti-human MLLT1 antibody (14893; Cell signaling technology) and 1:1200 dilution of anti-human GAPDH antibody (2118; Cell signaling technology) with anti-rabbit secondary detection module (DM-001; Bio-Techne). Post run, data were analysed using "Compass for SW" software for chemiluminescent detection. The peak area for each band was used for the calculation of MLLT1 degradation with respect to DMSO control. Data is shown as "MLLT1 % degradation". Category A: A ≥ 75% degradation Category B: 50% ≤ B < 75% degradation Category C: 25% ≤ C < 50% degradation Category D: D < 25% degradation Table 1

`Cc1nn(C2CCN(CC3CCN(c4cc5c(cc4F)C(=O)N(C4CCC(=O)NC4=O)C5=O)CC3)CC2)c2cc(C(=O)Nc3cc4[nH]c([C@H]5CCCN5C)cc4cn3)ccc12` (stereo partly drawn) [Example 69, 1-(1-((1-(2-(2,6-dioxopiperidin-3-yl)-6-fluoro-1,3-dioxoisoindolin-5-yl)piperidin-4-yl)methyl)piperidin-4-yl)-3-methyl-N-(2-((R)-1-methylpyrrolidin-2-yl)-1H-pyrrolo[3,2-c]pyridin-6-yl)-1H-indazole-6-carboxamide]: the inhibition at 0.01 µM was ≥ 75%, the inhibition at 0.1 µM was ≥ 75% and the inhibition at 1 µM is ≥ 75%.
Take `CN1CCC[C@@H]1c1cc2cnc(NC(=O)c3ccc4c(cnn4CCCCCCCCNc4cccc5c4C(=O)N(C4CCC(=O)NC4=O)C5=O)c3)cc2[nH]1` (stereo partly drawn) [Example 36, 1-(8-((2-(2,6-dioxopiperidin-3-yl)-1,3-dioxoisoindolin-4-yl)amino)octyl)-N-(2-((R)-1-methylpyrrolidin-2-yl)-1H-pyrrolo[3,2-c]pyridin-6-yl)-1H-indazole-5-carboxamide]: the inhibition at 0.01 µM was ≥ 75%, the inhibition at 0.1 µM is ≥ 75% and the inhibition at 1 µM was ≥ 75%.
Regarding `Cc1nn(CCCCCC#Cc2cccc(C(=O)NC3CCC(=O)NC3=O)c2F)c2cc(C(=O)Nc3cc4[nH]c([C@H]5CCCN5C)cc4cn3)ccc12` (stereo partly drawn) [Example 34, 1-(7-(3-((2,6-dioxopiperidin-3-yl)carbamoyl)-2-fluorophenyl)hept-6-yn-1-yl)-3-methyl-N-(2-((R)-1-methylpyrrolidin-2-yl)-1H-pyrrolo[3,2-c]pyridin-6-yl)-1H-indazole-6-carboxamide], the inhibition at 0.01 µM was < 25%, the inhibition at 0.1 µM lay within 50 to 75% and the inhibition at 1 µM was ≥ 75%.
Turning to `Cc1c([C@H]2CCCN2C)[nH]c2cc(NC(=O)c3ccc4c(C)nn(CCCCCCCC#Cc5cccc6c5CN(C5CCC(=O)NC5=O)C6=O)c4c3)ncc12` (stereo partly drawn) [Example 57, 1-(9-(2-(2,6-dioxopiperidin-3-yl)-1-oxoisoindolin-4-yl)non-8-yn-1-yl)-3-methyl-N-(3-methyl-2-((R)-1-methylpyrrolidin-2-yl)-1H-pyrrolo[3,2-c]pyridin-6-yl)-1H-indazole-6-carboxamide], the inhibition at 0.01 µM was ≥ 75%, the inhibition at 0.1 µM was ≥ 75% and the inhibition at 1 µM is ≥ 75%.
`Cc1nn(CCCCCC#Cc2cccc3c2n(C)c(=O)n3C2CCC(=O)NC2=O)c2cc(C(=O)Nc3cc4[nH]c([C@H]5CCCN5C)cc4cn3)ccc12` (stereo partly drawn) [Example 11, 1-{7-[1-(2,6-dioxopiperidin-3-yl)-3-methyl-2-oxo-1,3-benzodiazol-4-yl]hept-6-yn-1-yl}-3-methyl-N-{2-[(2R)-1-methylpyrrolidin-2-yl]-1H-pyrrolo[3,2-c]pyridin-6-yl}indazole-6-carboxamide] displayed an inhibition at 0.01 µM of 50 to 75%, an inhibition at 0.1 µM of 50 to 75% and an inhibition at 1 µM of 50 to 75%.
Consider `Cc1nn(CCCCCCCCC#Cc2cccc3c2CN(C2CCC(=O)NC2=O)C3=O)c2cc(C(=O)Nc3cc4[nH]c([C@H]5CCCN5C)cc4cn3)ccc12` (stereo partly drawn) [Example 54, 1-(10-(2-(2,6-dioxopiperidin-3-yl)-1-oxoisoindolin-4-yl)dec-9-yn-1-yl)-3-methyl-N-(2-((R)-1-methylpyrrolidin-2-yl)-1H-pyrrolo[3,2-c]pyridin-6-yl)-1H-indazole-6-carboxamide], for which the inhibition at 0.01 µM was ≥ 75%, the inhibition at 0.1 µM is ≥ 75% and the inhibition at 1 µM is ≥ 75%.
On to `Cc1nn(C2CCN(CC3CCN(c4cccc5c4C(=O)N(C4CCC(=O)NC4=O)C5=O)CC3)CC2)c2cc(C(=O)Nc3cc4[nH]c([C@H]5CCCN5C)cc4cn3)ccc12` (stereo partly drawn) [Example 71, 1-(1-((1-(2-(2,6-dioxopiperidin-3-yl)-1,3-dioxoisoindolin-4-yl)piperidin-4-yl)methyl)piperidin-4-yl)-3-methyl-N-(2-((R)-1-methylpyrrolidin-2-yl)-1H-pyrrolo[3,2-c]pyridin-6-yl)-1H-indazole-6-carboxamide], for which the inhibition at 0.01 µM lay in the range of 50 to 75%, the inhibition at 0.1 µM was ≥ 75% and the inhibition at 1 µM is ≥ 75%.
Consider `Cc1nn(CCCC2CCN(c3cccc4c3C(=O)N(C3CCC(=O)NC3=O)C4=O)CC2)c2cc(C(=O)Nc3cc4[nH]c([C@H]5CCCN5C)cc4cn3)ccc12` (stereo partly drawn) [Example 27, 1-(3-(1-(2-(2,6-dioxopiperidin-3-yl)-1,3-dioxoisoindolin-4-yl)piperidin-4-yl)propyl)-3-methyl-N-(2-((R)-1-methylpyrrolidin-2-yl)-1H-pyrrolo[3,2-c]pyridin-6-yl)-1H-indazole-6-carboxamide], for which the inhibition at 0.01 µM was ≥ 75%, the inhibition at 0.1 µM was ≥ 75% and the inhibition at 1 µM is ≥ 75%.
On to `Cc1c(OCCCCCCn2nc(C)c3ccc(C(=O)Nc4cc5[nH]c([C@H]6CCCN6C)cc5cn4)cc32)cccc1N1CCC(=O)NC1=O` [Example 10, 1-16-[3-(2,4-dioxo-1,3-diazinan-1-yl)-2-methylphenoxy]hexyll-3-methyl-N-{2-[(2R)-1-methylpyrrolidin-2-yl]-1H-pyrrolo [3,2-c]pyridin-6-yl}indazole-6-carboxamide], for which the inhibition at 0.01 µM fell in the range of 25 to 50%, the inhibition at 0.1 µM was 25 to 50% and the inhibition at 1 µM is 25 to 50%.
On to `Cc1nn(CCCCCCCC#Cc2ccc(C(=O)N[C@H]3CCC(=O)NC3=O)nc2)c2cc(C(=O)Nc3cc4[nH]c([C@H]5CCCN5C)cc4cn3)ccc12` [Example 41, 1-(9-(6-(((S)-2,6-dioxopiperidin-3-yl)carbamoyl)pyridin-3-yl)non-8-yn-1-yl)-3-methyl-N-(2-((R)-1-methylpyrrolidin-2-yl)-1H-pyrrolo [3,2-c]pyridin-6-yl)-1H-indazole-6-carboxamide], for which the inhibition at 0.01 µM was < 25%, the inhibition at 0.1 µM lay within 25 to 50% and the inhibition at 1 µM lay within 50 to 75%.
For `Cc1nn(CCCCCCCCNc2cccc3c2C(=O)N(C2CCC(=O)NC2=O)C3=O)c2cc(C(=O)Nc3cc4[nH]c([C@H]5CCCN5C)cc4cn3)ccc12` (stereo partly drawn) [Example 3, 1-(8-{[2-(2,6-dioxopiperidin-3-yl)-1,3-dioxoisoindol-4-yl]amino}octyl)-3-methyl-N-{2-[(2R)-1-methylpyrrolidin-2-yl]-1H-pyrrolo[3,2-c]pyridin-6-yl}indazole-6-carboxamide], the inhibition at 0.01 µM lay in the range of 50 to 75%, the inhibition at 0.1 µM was ≥ 75% and the inhibition at 1 µM is ≥ 75%.
For `Cc1nn(CCCCCC2CCN(c3cccc4c3C(=O)N(C3CCC(=O)NC3=O)C4=O)CC2)c2cc(C(=O)Nc3cc4[nH]c([C@H]5CCCN5C)cc4cn3)ccc12` (stereo partly drawn) [Example 29, 1-(5-(1-(2-(2,6-dioxopiperidin-3-yl)-1,3-dioxoisoindolin-4-yl)piperidin-4-yl)pentyl)-3-methyl-N-(2-((R)-1-methylpyrrolidin-2-yl)-1H-pyrrolo[3,2-c]pyridin-6-yl)-1H-indazole-6-carboxamide], the inhibition at 0.01 µM was 50 to 75%, the inhibition at 0.1 µM is ≥ 75% and the inhibition at 1 µM was ≥ 75%.
Turning to `Cc1nn(CCOCCCCC#Cc2cccc3c2CN(C2CCC(=O)NC2=O)C3=O)c2cc(C(=O)Nc3cc4[nH]c([C@H]5CCCN5C)cc4cn3)ccc12` (stereo partly drawn) [Example 50], the inhibition at 0.01 µM was ≥ 75%, the inhibition at 0.1 µM was ≥ 75% and the inhibition at 1 µM is ≥ 75%.

These data come from EP4667466A1, “PROTAC DEGRADERS OF MLLT1 AND/OR MLLT3” (priority 2024, dated 2025).
